From publication PMC6825211 (Nature Communications, 2019)
“And” between values parts separate entries of the source, which are not always exact repeats. Identical values can stand only once.

Legend:
human islets = assay: β-cell apoptosis (TUNEL/insulin) under diabetogenic conditions; assay type: cell-based; conditions: for mean TUNEL/isolation/%: 72 h
Procedure: . pThr183), caspase-3 cleavage, and GAPDH or actin were analyzed by western blotting. […] Scale bar, 100 μm. […]; all by Student’s t tests.
Human islets were isolated from eight pancreases of nondiabetic organ donors at PRODO Labs and at Lille University and cultured on extracellular matrix-coated dishes (Novamed, Jerusalem, Israel)[62] or on Biocoat Collagen I coated dishes (#356400, Corning, ME, USA). […] The clonal rat β-cell line INS-1E was kindly provided by Dr. Claes Wollheim, Geneva & Lund University. Human islets were cultured in complete CMRL-1066 (Invitrogen) medium at 5.5 mM glucose, mouse islets and INS-1E cells at complete RPMI-1640 medium at 11.1 mM glucose. […] . Palmitic acid (Sigma) was dissolved at 10 mmol/l in RPMI-1640 medium containing 11% fatty acid–free bovine serum albumin (BSA) (Sigma) under an N2-atmosphere and added to the culture at 0.5 mM[64]. […] . Isolated human islets or INS-1E cells were infected with adenovirus carrying LacZ as control or MST1 or LATS2 (all Vector Biolabs), at a multiplicity of infection of 100 (human islets) or 20 (INS-1E) for 4 h[11]. Adenovirus was subsequently washed off with PBS and replaced by fresh medium with 10% FBS and the respective analysis performed after 48 h post infection.
(§1) Mouse pancreases were dissected and fixed in 4% formaldehyde at 4 °C for 12 h before embedding in paraffin[62]. Two-four-micrometer sections were deparaffinized, rehydrated, and incubated overnight at 4 °C with anti-PDX-1 (Abcam; #47267), anti-Glut2 (Chemicon; #07-1402), anti-Ki67 (Dako; #M7249), anti-phospho-Histone H3 (Ser10; Merck #06-570), and anti-NKX6.1 (DSHB, University of Iowa #F55A12[66]) in combination with TSA (Invitrogen #T30955), or for 2 h at room temperature with anti-insulin (Dako; A0546) antibodies (all at a dilution of 1:100, except anti-PDX-1, which was diluted 1:400) followed by fluorescein isothiocyanate (FITC)- or Cy3-conjugated secondary antibodies (Jackson ImmunoResearch Laboratories, West Grove, PA). Slides were mounted with Vectashield with 4′6-diamidino-2-phenylindole (DAPI) (Vector Labs). β-cell apoptosis was analyzed by the terminal deoxynucleotidyl transferase-mediated dUTP nick-end labeling (TUNEL) technique according to the manufacturer’s instructions (In Situ Cell Death Detection Kit, TMR red; Roche) and double stained for insulin. Fluorescence was analyzed by using a Nikon MEA53200 (Nikon GmbH, Dusseldorf, Germany) microscope, and images were acquired by using NIS-Elements software (Nikon).

MLD–STZ C57BL/6J mice = assay: MLD–STZ model: intraperitoneal glucose tolerance test (ipGTT); assay type: in vivo, mouse; design: ipGTT glucose / AUC ipGTT: unit not given here
Procedure: C57Bl/6J mice were injected with 40 mg/kg streptozotocin or citrate buffer for 5 consecutive days. […] In d, basal glucose values were normalized to 100%. e Insulin secretion measured from retro-orbital blood draw during an ipGTT measured before (0 min) and 15 min after glucose injection; data are expressed as the ratio of secreted insulin at 15 min/0 min (stimulatory index). f The ratio of secreted insulin and glucose is calculated at fed state. g–i Mice were killed at day 35. g β-cell mass (given as percentage of the whole pancreatic section from ten sections spanning the width of the pancreas) and quantitative analyses from triple staining for h TUNEL or i Ki67, insulin, and DAPI expressed as percentage of TUNEL- or Ki67-positive β-cells ±SEM. An average number of 2331 (h), or 26369 (i) β-cells were counted. n = 9 mice/group for (a); n = 4–12 for (b); n = 5–15 for (c) and (d); n = 12–19 for (e); n = 8–14 for (f); n = 4–9 for (g); n = 4–11 for (h); and n = 6–11 mice/groupfor (i); all from three independent experiments).
For intraperitoneal glucose tolerance tests, mice were fasted 12 h overnight and injected i.p. with glucose (40%; B.Braun, Melsungen, Germany) at a dose of 1 g/kg body weight. Blood samples were obtained at time points 0, 15, 30, 60, 90, and 120 min for glucose measurements by using a Glucometer. For i.p. insulin tolerance tests, mice were injected with 0.75 U/kg body weight recombinant human insulin (Novolin, Novo Nordisk) after 4–5-h fasting, and glucose concentration was determined with the Glucometer. Insulin secretion was measured before (0 min) and after (15 and 30 min) i.p. injection of glucose (2 g/kg) and measured by using ultrasensitive mouse Elisa kit (ALPCO Diagnostics, Salem, NH).

[1] = test system: obese diabetic Lepr db/db mice; assay: db/db model: nuclear PDX1-positive β-cells; assay type: in vivo, mouse; conditions: for PDX1 %/mouse: dbdb mice
From the text: Data are representative of six mice per group (n = 6 for (a–f)). g–j Mice were killed at day 31. g β-cell mass (given as percentage of the whole pancreatic section from ten sections spanning the width of the pancreas; n = 5 mice/group) and quantitative analyses from triple stainings for (h) TUNEL, (i) Ki67, (j) pHH3, and (k) nuclear PDX1 expression, insulin, and DAPI expressed as percentage of TUNEL-, Ki67-, pHH3-, or nuclear PDX1-positive β-cells ± SEM. An average number of 13667 (h), 5937 (i), 7108 (j), or 4330 (k) β-cells were counted from n = 3–5 (h, i, k) or n = 5–6 (j) mice/group.
as §1

AURORA-A = AURORA-A (Homo sapiens, UniProt O14965); assay: Nanosyn kinase profiling, mobility shift assay; conditions: read-out: % inhibition by neratinib
Chain of AURORA-A (O14965 whole entry): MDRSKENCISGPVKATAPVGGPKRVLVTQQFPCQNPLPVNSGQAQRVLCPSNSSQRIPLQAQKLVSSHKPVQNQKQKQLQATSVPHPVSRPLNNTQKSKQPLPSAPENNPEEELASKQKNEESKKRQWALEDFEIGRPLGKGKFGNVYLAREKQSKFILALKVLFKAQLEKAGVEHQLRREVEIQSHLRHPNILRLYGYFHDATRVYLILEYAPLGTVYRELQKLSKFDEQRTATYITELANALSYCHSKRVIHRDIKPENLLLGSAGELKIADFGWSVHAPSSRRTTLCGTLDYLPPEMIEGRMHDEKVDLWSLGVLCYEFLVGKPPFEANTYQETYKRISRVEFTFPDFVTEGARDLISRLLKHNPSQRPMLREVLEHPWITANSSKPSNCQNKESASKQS

FLT-3 = FLT-3 (Homo sapiens, UniProt P36888); assay: Nanosyn kinase profiling, mobility shift assay; conditions: read-out: % inhibition by neratinib
Chain of FLT-3 (P36888 27-993): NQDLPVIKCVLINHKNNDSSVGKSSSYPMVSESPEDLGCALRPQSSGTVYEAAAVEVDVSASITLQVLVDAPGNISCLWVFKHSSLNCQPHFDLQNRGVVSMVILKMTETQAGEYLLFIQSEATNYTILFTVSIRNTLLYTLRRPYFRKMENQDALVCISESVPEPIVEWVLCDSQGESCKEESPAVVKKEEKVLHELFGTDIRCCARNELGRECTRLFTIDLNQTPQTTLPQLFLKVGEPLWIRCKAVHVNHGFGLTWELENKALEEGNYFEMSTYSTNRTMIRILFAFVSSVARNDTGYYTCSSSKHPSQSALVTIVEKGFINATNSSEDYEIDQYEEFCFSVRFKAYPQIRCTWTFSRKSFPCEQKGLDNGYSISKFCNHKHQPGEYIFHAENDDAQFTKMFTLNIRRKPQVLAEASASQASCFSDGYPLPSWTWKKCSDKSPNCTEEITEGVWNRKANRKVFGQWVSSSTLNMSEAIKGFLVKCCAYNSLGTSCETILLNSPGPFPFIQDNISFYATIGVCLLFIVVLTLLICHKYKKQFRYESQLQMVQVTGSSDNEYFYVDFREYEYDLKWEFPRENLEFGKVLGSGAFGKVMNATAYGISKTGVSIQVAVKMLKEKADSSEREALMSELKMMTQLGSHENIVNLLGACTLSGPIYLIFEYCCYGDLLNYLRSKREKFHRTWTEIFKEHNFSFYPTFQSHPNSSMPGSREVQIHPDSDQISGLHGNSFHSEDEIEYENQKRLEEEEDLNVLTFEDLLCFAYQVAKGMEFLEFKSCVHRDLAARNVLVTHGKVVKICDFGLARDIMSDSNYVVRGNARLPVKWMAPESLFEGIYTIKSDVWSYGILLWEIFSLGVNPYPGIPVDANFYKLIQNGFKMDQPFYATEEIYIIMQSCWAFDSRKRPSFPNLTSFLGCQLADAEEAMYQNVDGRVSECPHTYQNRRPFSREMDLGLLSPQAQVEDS

PDGFR-ALPHA = PDGFR-ALPHA (Homo sapiens, UniProt P16234); assay: Nanosyn kinase profiling, mobility shift assay; conditions: read-out: % inhibition by neratinib
Chain of PDGFR-ALPHA (P16234 24-1089): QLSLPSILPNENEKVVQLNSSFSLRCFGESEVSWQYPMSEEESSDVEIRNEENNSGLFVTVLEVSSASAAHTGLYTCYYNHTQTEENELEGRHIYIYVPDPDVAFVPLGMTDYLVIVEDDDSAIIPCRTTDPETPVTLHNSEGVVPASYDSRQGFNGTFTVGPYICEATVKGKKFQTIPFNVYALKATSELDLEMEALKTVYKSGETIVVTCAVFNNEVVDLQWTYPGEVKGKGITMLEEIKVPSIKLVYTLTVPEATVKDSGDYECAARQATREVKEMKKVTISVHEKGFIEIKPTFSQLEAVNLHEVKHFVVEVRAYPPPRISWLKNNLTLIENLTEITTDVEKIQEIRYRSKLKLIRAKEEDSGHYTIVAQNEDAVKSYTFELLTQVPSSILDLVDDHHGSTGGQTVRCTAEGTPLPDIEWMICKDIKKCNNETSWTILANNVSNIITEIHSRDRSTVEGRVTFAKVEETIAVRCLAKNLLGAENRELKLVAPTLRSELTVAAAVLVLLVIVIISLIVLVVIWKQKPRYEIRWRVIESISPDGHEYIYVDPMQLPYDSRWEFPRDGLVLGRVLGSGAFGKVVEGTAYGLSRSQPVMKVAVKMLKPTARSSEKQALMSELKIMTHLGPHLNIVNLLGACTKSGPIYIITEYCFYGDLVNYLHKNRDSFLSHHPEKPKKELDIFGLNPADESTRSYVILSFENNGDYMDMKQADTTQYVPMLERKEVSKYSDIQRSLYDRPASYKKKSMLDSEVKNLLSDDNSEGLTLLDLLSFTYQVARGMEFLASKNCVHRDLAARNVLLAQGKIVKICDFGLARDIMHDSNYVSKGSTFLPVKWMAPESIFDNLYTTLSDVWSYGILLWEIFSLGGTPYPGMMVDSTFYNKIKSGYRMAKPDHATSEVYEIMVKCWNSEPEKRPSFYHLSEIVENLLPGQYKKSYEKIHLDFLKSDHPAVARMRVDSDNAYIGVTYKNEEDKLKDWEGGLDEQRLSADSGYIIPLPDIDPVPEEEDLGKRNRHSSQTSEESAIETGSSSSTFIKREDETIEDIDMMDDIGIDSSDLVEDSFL

## CCOc1cc2ncc(C#N)c(Nc3ccc(OCc4ccccn4)c(Cl)c3)c2cc1NC(=O)/C=C/CN(C)C [neratinib]
Human islets; 25 µM neratinib, human islets
  toxicity at basal control levels: did not result in any detectable toxicity
Human islets; HG/Pal + NERA, mean of isolations, untreated = 100
  mean TUNEL/isolation/%: 180.73%
Human islets; HG/Pal + NERA, single islet isolations, untreated mean = 100
  mean TUNEL/isolation/%: 224.286% and 136.508% and 181.395%
Human islets; ILIF + NERA, mean of isolations, untreated = 100
  mean TUNEL/isolation/%: 205.757%
MLD–STZ C57BL/6J mice; 5 mg/kg i.p. daily
  glucose tolerance in STZ mice: significantly improved glucose tolerance
MLD–STZ C57BL/6J mice; NeraCtr, 0 min, Mean
  ipGTT glucose: 59.25
MLD–STZ C57BL/6J mice; NeraCtr, 0 min after glc, individual mice
  ipGTT glucose: 51 and 48 and 70 and 68
MLD–STZ C57BL/6J mice; NeraCtr, 15 min, Mean
  ipGTT glucose: 210.75
MLD–STZ C57BL/6J mice; NeraCtr, 15 min after glc, individual mice
  ipGTT glucose: 211 and 183 and 258 and 191
MLD–STZ C57BL/6J mice; NeraCtr, 30 min, Mean
  ipGTT glucose: 316.5
MLD–STZ C57BL/6J mice; NeraCtr, 30 min after glc, individual mice
  ipGTT glucose: 290 and 203 and 500 and 273
MLD–STZ C57BL/6J mice; NeraCtr, 60 min, Mean
  ipGTT glucose: 219.25
MLD–STZ C57BL/6J mice; NeraCtr, 60 min after glc, individual mice
  ipGTT glucose: 166 and 171 and 373 and 167
MLD–STZ C57BL/6J mice; NeraCtr, 90 min, Mean
  ipGTT glucose: 134.5
MLD–STZ C57BL/6J mice; NeraCtr, 90 min after glc, individual mice
  ipGTT glucose: 133 and 136 and 158 and 111
MLD–STZ C57BL/6J mice; NeraCtr, 120 min, MEAN
  ipGTT glucose: 96
MLD–STZ C57BL/6J mice; NeraCtr, 120 min after glc, individual mice
  ipGTT glucose: 91 and 96 and 116 and 81
MLD–STZ C57BL/6J mice; NeraCtr, individual mice
  AUC ipGTT: 20407.5 and 18322.5 and 14535 and 19072.5
MLD–STZ C57BL/6J mice; NeraSTZ, 0 min, mean line
  ipGTT glucose: 61.5
MLD–STZ C57BL/6J mice; NeraSTZ, 0 min after glc, individual mice
  ipGTT glucose: 67 and 66 and 51 and 57 and 80 and 63 and 62 and 69 and 65 and 44
MLD–STZ C57BL/6J mice; NeraSTZ, 15 min, mean line
  ipGTT glucose: 285.917
MLD–STZ C57BL/6J mice; NeraSTZ, 15 min after glc, individual mice
  ipGTT glucose: 304 and 272 and 259 and 246 and 291 and 315 and 312 and 420 and 217 and 264
MLD–STZ C57BL/6J mice; NeraSTZ, 30 min, mean line
  ipGTT glucose: 319.5
MLD–STZ C57BL/6J mice; NeraSTZ, 30 min after glc, individual mice
  ipGTT glucose: 308 and 348 and 303 and 268 and 319 and 424 and 341 and 371 and 315 and 292 and 282 and 263
MLD–STZ C57BL/6J mice; NeraSTZ, 60 min, mean line
  ipGTT glucose: 284.417
MLD–STZ C57BL/6J mice; NeraSTZ, 60 min after glc, individual mice
  ipGTT glucose: 274 and 307 and 368 and 214 and 271 and 308 and 291 and 343 and 321 and 283 and 219
MLD–STZ C57BL/6J mice; NeraSTZ, 90 min after glc, individual mice
  ipGTT glucose: 181 and 290 and 234 and 159 and 228 and 264 and 184 and 260 and 250 and 205 and 248 and 195
MLD–STZ C57BL/6J mice; NeraSTZ, 120 min after glc, individual mice
  ipGTT glucose: 136 and 229 and 175 and 112 and 213 and 180 and 169 and 210 and 211 and 164 and 187
MLD–STZ C57BL/6J mice; NeraSTZ, individual mice
  AUC ipGTT: 27682.5 and 33750 and 31770 and 23017.5 and 30135 and 34725 and 29565 and 36360 and 31732.5
[1]; db/db, day 31
  nuclear PDX1: enhanced
[1]; Mean
  PDX1 %/mouse: 57.3127%
[1]; individual mice
  PDX1 %/mouse: 48.8372% and 71.3415% and 51.7595%
AURORA-A
  inhibition at 10 µM: 28%
FLT-3
  inhibition at 10 µM: 47%
PDGFR-ALPHA
  inhibition at 10 µM: 31%
